{
  "source": "patent US20240390503A1",
  "about": "“Green Tea-based Nanocomplexes for Eye Disease” (Agency for Science, Technology and Research, priority 2021, published 2024)",
  "key": {"AMD patients [1]": {"test_system": "AMD patients", "conditions": "cited from earlier work"}, "Vldlr^−/− mice": {"test_system": "Vldlr^−/− mice", "assay": "In vivo anti-angiogenesis effect on Vldlr−/− mice (relative number of retinal lesions, fluorescein angiography)"}, "[2]": {"test_system": "Human umbilical vein endothelial cells (HUVECs)", "assay": "Inhibitory effects on VEGF-activated endothelial cell proliferation (AlamarBlue)", "assay_type": "cell-based", "conditions": "HUVEC, 3 days, read-out: IC50, anti-proliferative effect", "protocol": "Human umbilical vein endothelial cells (HUVECs) were obtained from Lonza Biologics Tuas Pte Ltd (Singapore), and cultured in the endothelial cell basal medium (EBM-2) supplemented with EGM-2 SingleQuots (Lonza Biologics Tuas Pte Ltd, Singapore). HUVECs were seeded in 96-well plates (5×10^3 cells/well, n=5) and cultured for one day for cell attachment.\nAfter 3 days, the cell viability was measured by using AlamarBlue® reagent (Life Technologies, USA) according to the manufacturer's protocol. Briefly, the medium was replaced by phenol red-free media containing 10% AlamarBlue® reagent. After incubation for 4 hours at 37° C., fluorescence intensity (λex=549 nm and λem=587 nm) was measured by a microplate reader (Tecan Group Ltd., Switzerland). Results were expressed as a percentage of viable cells relative to untreated cells.\nThe CI values of HA-EGCG and drug combination were calculated with the following equation using the CompuSyn software: […]"}, "AMD patients [3]": {"test_system": "AMD patients", "conditions": "oral, cited from earlier work"}},
  "note": "Entries after “also recorded” stand apart in the source; their conditions may differ. Like-named read-outs stand apart in the source and are kept apart here.",
  "data": [
    {"compound": "Ranibizumab", "values": [
      {"measurement": "AMD patients with improved visual acuity", "setting": "AMD patients [1]; monthly IVT injection, 0.5 mg", "value": 33.8, "unit": "%"},
      {"measurement": "incidence of increased intraocular pressure", "setting": "AMD patients [1]; two year treatment", "value": 24, "unit": "%"},
      {"measurement": "incidence of intraocular inflammation", "setting": "AMD patients [1]; two year treatment", "value": 18, "unit": "%"}
    ]},
    {"compound": "CCN(CC)CCNC(=O)c1c(C)[nH]c(/C=C2\\C(=O)Nc3ccc(F)cc32)c1C", "note": "[SU, Sunitinib malate]", "values": [
      {"measurement": "progression of retinal lesions", "setting": "Vldlr^−/− mice; topical, SU 0.50 mg/mL, 10 μL, 3×/day, 28 days", "value": "no efficacy"},
      {"measurement": "IC50", "setting": "[2]; Homo sapiens, 72 h, VEGF-activated conditions", "value": 4.32, "unit": "µM"},
      {"measurement": "IC50", "setting": "[2]; Homo sapiens, 72 h, normal growth conditions", "value": 6.59, "unit": "µM"}
    ]},
    {"compound": "Aflibercept", "values": [
      {"measurement": "CNV inhibitory effect", "setting": "Vldlr^−/− mice; IVT, 2.0 μg/0.5 μL, 1× at day 0", "value": "observed only in the early stages of treatment and diminished over time; also recorded: effective only in the first 7 days"},
      {"measurement": "retinal lesion development", "setting": "Vldlr^−/− mice; topical, AF 0.2 mg/mL or equivalent HA-EGCG/chitosan, 10 μL, 3×/day, 31 days", "value": "failed to suppress the lesion progression"},
      {"measurement": "IC50", "setting": "[2]; VEGF-activated conditions", "value": "> 0.21", "unit": "µM"}
    ]},
    {"compound": "Cc1[nH]c(/C=C2\\C(=O)Nc3ccc(F)cc32)c(C)c1C(=O)N[C@H]1CCN(C(=O)N(C)C)C1", "note": "[Vorolanib]", "values": [
      {"measurement": "AMD patients with improved visual acuity", "setting": "AMD patients [3]; phase 1, completed 24 weeks treatment", "value": "24 out of 25"},
      {"measurement": "participants who discontinued due to severe systemic adverse effects", "setting": "AMD patients [3]; phase 1", "value": 17, "unit": "%"},
      {"measurement": "visual acuity compared to placebo", "setting": "AMD patients [3]; phase 2, at 52 weeks", "value": "did not improve visual acuity"}
    ]}
  ]
}
